# Structures can show the parent of a compound that is named as a salt.
# Columns and labels:
# [1] = target: T1, human histamine H1 receptor (hH1R) (Homo sapiens, UniProt P35367); assay: hH1R radioligand binding ([3H]mepyramine); conditions: read-out: hH1R (Ki [nM] x̅ [CI 95%]); HEK293T cells; n = 3, triplicate
# T1 construct: SP (signal peptide) (N); FLAG (N); expressed in transfected cells
# Procedure: To check the selectivity profile of our lead structures, radioligand binding studies at other histamine receptor subtypes were carried out. […] Obtained results clearly indicate the high selectivity of the tested derivatives toward human H3R (Table 3).
# Compounds (as oxalate salts) were tested in H3R in vitro binding studies using the methods described previously.[21]−[23] […] Radioligand binding experiments at the H1R, H2R, and H4R were performed as previously described in Rosier et al.[65] and Bartole et al.[66] […] Data represent mean values ± CI from three independent experiments, each performed in triplicate. The normalized competition binding curves were then fitted with a four-parameter logistic fit yielding IC50 values using the Prism 8.4.3 software (GraphPad, San Diego, CA). The Ki values were estimated from the Cheng–Prusoff equation.[69]
# mice [2] = assay: spontaneous locomotor activity; format: in vivo
# Procedure: (§1) The high sedative activity of analgesics is considered an undesirable property, which may lead to an incorrect or ambiguous interpretation of the in vivo results. Moreover, it may limit the potential clinical application of new drug candidates.
# (§2) This test was carried out according to the procedure described elsewhere.[84] The animals were injected (i.p.) with 12 at doses of 5, 15, and 30 mg/kg and placed in the activity cages individually (30 min before the experiment). The number of light-beam crossings was counted in each group during the next 30 min in 10 min intervals.
# [3] = spontaneous locomotor activity; format: in vivo, mice; conditions: mouse, in vivo, ip; estimated; read-out: ED50, decrease of spontaneous locomotor activity
# Procedure: as §1, §2
# mice [4] = assay: oxaliplatin-induced neuropathy, von Frey test; format: in vivo; conditions: for pain threshold after single administration, early phase: 3 h after OXPT; for pain threshold after single administration, late phase: 7 days after OXPT
# Procedure: The neuropathy manifests as a decrease in the pain threshold and can be observed in hours or in days after oxaliplatin administration, which is called the early or late phase of neuropathic pain, respectively. We tested the influence of compound 12 on tactile allodynia using the von Frey method 3 h and 7 days after the induction of neuropathy.[12]
# Neuropathy was induced by the administration of a single dose (10 mg/kg) of oxaliplatin (OXPT) dissolved in a 5% glucose solution (Polfa Kutno, Poland). To assess the sensitivity to mechanical stimuli, the von Frey test was carried out using the electronic von Frey unit (Bioseb, France). The apparatus was supplied with a single flexible filament, which was used to apply increasing force (from 0 to 10 g) against the plantar surface of the hind paw of the mouse. […] The measurement was done before the OXPT administration and 3 h and 7 days afterward. The compounds were administrated to the animals with tactile allodynia observed as a statistically significant decrease in pain threshold. On the day of the experiment, each mouse was placed in an observation chamber with a wire mesh bottom and was allowed to habituate for 1 h. After the habituation period, the mouse pain threshold was tested three times alternately with at least 30 s gap between each measurement. The mean of these three consecutive measurements was taken as the baseline value. The mice with tactile allodynia were i.p. pretreated with the tested compound, and 30 min later, the animals were tested again according to the same procedure.[92]
# mice [5] = assay: loperamide-induced antinociception (paw pressure, struggle response latency); format: in vivo, Female CD1 mice
# sigma-1 receptor (σ1R) [6] = assay: σ1R radioligand binding ([3H](+)-pentazocine); design: species or system guinea pig; conditions: ratio of σ2R Ki to σ1R Ki
# sigma-1 receptor (σ1R) [7] = target: T2, sigma-1 receptor (σ1R) (Cavia porcellus, UniProt Q60492); assay: σ1R radioligand binding ([3H](+)-pentazocine); design: species or system guinea pig; conditions: read-out: σ1R Ki [nM] x̄ [CI 95%]; mean [CI 95%]
# T2 construct: The thawed membrane preparation of the guinea pig brain cortex was incubated; from tissue; host or cells: male Dunkin-Hartley guinea pig brain cortex membranes
# T2 sequence (Q60492 whole entry): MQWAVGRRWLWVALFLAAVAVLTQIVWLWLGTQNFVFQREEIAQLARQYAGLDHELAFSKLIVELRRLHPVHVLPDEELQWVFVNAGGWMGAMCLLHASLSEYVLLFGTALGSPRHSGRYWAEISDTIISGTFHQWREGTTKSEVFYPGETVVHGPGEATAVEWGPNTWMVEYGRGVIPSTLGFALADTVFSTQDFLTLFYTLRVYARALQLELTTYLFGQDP
# sigma-2 receptor (σ2R) = target: T3, sigma-2 receptor (σ2R) (Rattus norvegicus, UniProt Q5U3Y7); assay: σ2R radioligand binding ([3H]DTG); conditions: read-out: σ2R Ki [nM] x̄ [CI 95%]; mean [CI 95%]
# T3 construct: The thawed membrane preparation of rat liver was incubated; from tissue; host or cells: Sprague-Dawley rat liver membranes
# T3 sequence (Q5U3Y7 1-176): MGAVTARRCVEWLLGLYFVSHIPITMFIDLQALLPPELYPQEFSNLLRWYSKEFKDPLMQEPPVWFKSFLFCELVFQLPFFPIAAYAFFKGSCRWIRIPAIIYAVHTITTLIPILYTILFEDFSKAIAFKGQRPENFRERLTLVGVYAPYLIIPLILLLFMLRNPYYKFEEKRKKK
# T1 sequence (P35367 whole entry): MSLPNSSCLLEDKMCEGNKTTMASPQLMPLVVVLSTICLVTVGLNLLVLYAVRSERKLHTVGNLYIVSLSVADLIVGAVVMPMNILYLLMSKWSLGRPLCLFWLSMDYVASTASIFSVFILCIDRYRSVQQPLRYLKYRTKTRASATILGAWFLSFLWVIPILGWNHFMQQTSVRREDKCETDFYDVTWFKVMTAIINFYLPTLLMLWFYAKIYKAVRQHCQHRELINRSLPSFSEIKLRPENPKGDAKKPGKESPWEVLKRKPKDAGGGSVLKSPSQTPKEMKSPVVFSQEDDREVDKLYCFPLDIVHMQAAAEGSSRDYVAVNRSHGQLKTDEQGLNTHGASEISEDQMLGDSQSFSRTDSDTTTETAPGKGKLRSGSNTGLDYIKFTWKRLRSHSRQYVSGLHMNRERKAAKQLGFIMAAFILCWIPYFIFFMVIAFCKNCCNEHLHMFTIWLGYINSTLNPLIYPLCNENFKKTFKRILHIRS
structure (smiles),measurement,setting,value
"N#Cc1ccc(-c2ccc(OCCCN3CCC(c4ccncc4)CC3)cc2)cc1 [Compound 12, 4′-(3-(4-(Pyridin-4-yl)piperidin-1-yl)propoxy)-[1,1′-biphenyl]-4-carbonitrile Oxalate]",Ki,[1],653 nM
same,influence on spontaneous locomotor activity (sedative effect),mice [2]; 15 mg/kg i.p.,"decreased spontaneous locomotor activity, but the effect was not statistically significant"
same,influence on spontaneous locomotor activity (sedative effect),mice [2]; 30 mg/kg i.p.,significantly decreased locomotor activity
same,ED50 at 30 min,[3],22 mg/kg
same,"pain threshold after single administration, early phase",mice [4]; 5 mg/kg i.p.,88.6 % of the baseline
same,"pain threshold after single administration, early phase",mice [4]; 10 mg/kg i.p.,115.0 % of the baseline
same,"pain threshold after single administration, late phase",mice [4]; 10 mg/kg i.p.,99.8 % of the baseline
same,"pain threshold after single administration, early phase",mice [4]; 15 mg/kg i.p.,124.3 % of the baseline
same,"pain threshold after single administration, late phase",mice [4]; 15 mg/kg i.p.,123.7 % of the baseline
same,in vivo σ1 receptor functional profile,mice [5]; concluded from PRE-084 reversal,σ1 receptor antagonists
same,effect on loperamide-induced antinociception,"mice [5]; i.pl. with loperamide 4 mg/kg s.c., injected paw",dose-dependently (12.5–25 μg) increased the antinociceptive effect of loperamide at the injected paw
same,effect alone on struggle response latency,"mice [5]; i.pl., S1RA 100 μg, 12 25 μg, 450 g pressure",did not have any effect per se
same,σ2/σ1 ratio,sigma-1 receptor (σ1R) [6],2.2
same,Ki,sigma-1 receptor (σ1R) [7],4.5 nM
same,Ki,sigma-2 receptor (σ2R),10 nM

# Reference: PMC10388327, “Dual Piperidine-Based Histamine H3 and Sigma-1 Receptor Ligands in the Treatment of Nociceptive and Neuropathic Pain” (Journal of Medicinal Chemistry, 2023)
